Data taken from patent US12384797B2, “Thioeno[3,2-b] pyridin-7-amine compounds for treating familial dysautonomia” (PTC THERAPEUTICS, INC., priority 2019, dated 2025).

What follows are molecules tested on Elongator complex protein 1 (ELP1, also referred to as IKBKAP) (assay: IKBKAP-HTRF assay (IKBKAP protein in lysates of FD patient-derived fibroblasts)). Settings: 48 hours incubation, 7-point concentration curve.
Assay type: cell-based, human
Summary of the method: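 Sandwich HTRF with two labelled anti-IKAP antibodies (overnight, 4 °C) measured IKBKAP in lysates of FD patient fibroblasts. Cells were exposed to compound for 48 h at 37 °C (7-point curve, 3.16-fold steps, triplicates). EC2x is the dose doubling IKBKAP versus DMSO control; MFI is sample ΔF divided by vehicle ΔF.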
In the case of Cc1c(C[C@@H](N)C(=O)N(C)c2ccccc2)sc2c(NCc3ccco3)cc(Cl)nc12 [Compound 141, 3-(5-chloro-7-{[(furan-2-yl)methyl]amino}-3-methylthieno[3,2-b]pyridin-2-yl)-N-methyl-N-phenyl-D-alaninamide], the “EC2x for IKBKAP protein expression (concentration producing two times the amount of IKBKAP protein vs DMSO vehicle control)” value is reported as “*** (between >0.02 μM and ≤0.5 μM is indicated by three stars (***))” and the “MFI (maximum fold increase in IKBKAP protein abundance relative to the vehicle control)” value is reported as “**** (between >3.9 and ≤4.9 is indicated by four stars (****))”.
“2-[(2S)-2-aminobutyl]-5-chloro-3-cyclopropyl-N-[(thiophen-2-yl)methyl]thieno[3,2-b]pyridin-7-amine [Compound 75]” was tested, and the “EC2x for IKBKAP protein expression (concentration producing two times the amount of IKBKAP protein vs DMSO vehicle control)” value was “*** (between >0.02 μM and ≤0.5 μM is indicated by three stars (***))” and the “MFI (maximum fold increase in IKBKAP protein abundance relative to the vehicle control)” value was “***** (>4.9 is indicated by five stars (*****))”.
Cc1c(C[C@H](C)N)sc2c(NCc3ccco3)cc(Cl)nc12 [Compound 18, 2-[(2S)-2-aminopropyl]-5-chloro-N-[(furan-2-yl)methyl]-3-methylthieno[3,2-b]pyridin-7-amine] was tested, and the “EC2x for IKBKAP protein expression (concentration producing two times the amount of IKBKAP protein vs DMSO vehicle control)” value was “***** (≤0.005 μM is indicated by five stars (*****))” and the “MFI (maximum fold increase in IKBKAP protein abundance relative to the vehicle control)” value was “***** (>4.9 is indicated by five stars (*****))”.
For CS(=O)(=O)C[C@H](N)Cc1sc2c(NCc3ccco3)cc(Cl)nc2c1Cl [Compound 113, 2-[(2R)-2-amino-3-(methanesulfonyl)propyl]-3,5-dichloro-N-[(furan-2-yl)methyl]thieno[3,2-b]pyridin-7-amine], the “EC2x for IKBKAP protein expression (concentration producing two times the amount of IKBKAP protein vs DMSO vehicle control)” value was “**** (between >0.005 μM and ≤0.02 μM is indicated by four stars (****))” and the “MFI (maximum fold increase in IKBKAP protein abundance relative to the vehicle control)” value was “***** (>4.9 is indicated by five stars (*****))”.
N[C@H](CF)Cc1sc2c(NCc3nccs3)cc(Cl)nc2c1Cl [Compound 67, 2-[(2S)-2-amino-3-fluoropropyl]-3,5-dichloro-N-[(1,3-thiazol-2-yl)methyl]thieno[3,2-b]pyridin-7-amine] was tested, and the “EC2x for IKBKAP protein expression (concentration producing two times the amount of IKBKAP protein vs DMSO vehicle control)” value was “* (An EC2x>1 μM is indicated by one star (*))” and the “MFI (maximum fold increase in IKBKAP protein abundance relative to the vehicle control)” value was “* (An MFI≤1.9 is indicated by one star (*))”.
With CC(C)C[C@H](N)Cc1sc2c(NCc3nccs3)cc(Cl)nc2c1Cl [Compound 79, 2-[(2S)-2-amino-4-methylpentyl]-3,5-dichloro-N-[(1,3-thiazol-2-yl)methyl]thieno[3,2-b]pyridin-7-amine] the “EC2x for IKBKAP protein expression (concentration producing two times the amount of IKBKAP protein vs DMSO vehicle control)” value was “***** (≤0.005 μM is indicated by five stars (*****))” and the “MFI (maximum fold increase in IKBKAP protein abundance relative to the vehicle control)” value was “***** (>4.9 is indicated by five stars (*****))”.
For C[C@H](N)Cc1sc2c(NCc3cccs3)cc(Cl)nc2c1Br [Compound 53, 2-[(2S)-2-aminopropyl]-3-bromo-5-chloro-N-[(thiophen-2-yl)methyl]thieno[3,2-b]pyridin-7-amine], the “EC2x for IKBKAP protein expression (concentration producing two times the amount of IKBKAP protein vs DMSO vehicle control)” value was “***** (≤0.005 μM is indicated by five stars (*****))” and the “MFI (maximum fold increase in IKBKAP protein abundance relative to the vehicle control)” value was “***** (>4.9 is indicated by five stars (*****))”.
With N[C@H](Cc1sc2c(NCc3ccco3)cc(Cl)nc2c1Cl)C(=O)Nc1ccccc1 [Compound 122, 3-(3,5-dichloro-7-{[(furan-2-yl)methyl]amino}thieno[3,2-b]pyridin-2-yl)-N-phenyl-D-alaninamide] the “EC2x for IKBKAP protein expression (concentration producing two times the amount of IKBKAP protein vs DMSO vehicle control)” value was “**** (between >0.005 μM and ≤0.02 μM is indicated by four stars (****))” and the “MFI (maximum fold increase in IKBKAP protein abundance relative to the vehicle control)” value was “***** (>4.9 is indicated by five stars (*****))”.
Cc1c([C@@H](C)N)sc2c(NCc3ccco3)cc(Cl)nc12 [Compound 22, 2-[(1R)-1-aminoethyl]-5-chloro-N-[(furan-2-yl)methyl]-3-methylthieno[3,2-b]pyridin-7-amine] was tested, and the “EC2x for IKBKAP protein expression (concentration producing two times the amount of IKBKAP protein vs DMSO vehicle control)” value was “* (An EC2x>1 μM is indicated by one star (*))” and the “MFI (maximum fold increase in IKBKAP protein abundance relative to the vehicle control)” value was “** (between >1.9 and ≤2.9 is indicated by two stars (**))”.
With Cc1c(C[C@@H](N)CCF)sc2c(NCc3nccs3)cc(Cl)nc12 [Compound 99, 2-[(2S)-2-amino-4-fluorobutyl]-5-chloro-3-methyl-N-[(1,3-thiazol-2-yl)methyl]thieno[3,2-b]pyridin-7-amine] the “EC2x for IKBKAP protein expression (concentration producing two times the amount of IKBKAP protein vs DMSO vehicle control)” value was “***** (≤0.005 μM is indicated by five stars (*****))” and the “MFI (maximum fold increase in IKBKAP protein abundance relative to the vehicle control)” value was “***** (>4.9 is indicated by five stars (*****))”.
With CC[C@H](N)Cc1sc2c(NCc3nccs3)cc(Cl)nc2c1Br [Compound 78, 2-[(2S)-2-aminobutyl]-3-bromo-5-chloro-N-[(1,3-thiazol-2-yl)methyl]thieno[3,2-b]pyridin-7-amine] the “EC2x for IKBKAP protein expression (concentration producing two times the amount of IKBKAP protein vs DMSO vehicle control)” value was “***** (≤0.005 μM is indicated by five stars (*****))” and the “MFI (maximum fold increase in IKBKAP protein abundance relative to the vehicle control)” value was “***** (>4.9 is indicated by five stars (*****))”.
In the case of Cc1c(C[C@@H](N)[C@H](C)F)sc2c(NCc3nccs3)cc(Cl)nc12 [Compound 128, 2-[(2R,3S)-2-amino-3-fluorobutyl]-5-chloro-3-methyl-N-[(1,3-thiazol-2-yl)methyl]thieno[3,2-b]pyridin-7-amine], the “EC2x for IKBKAP protein expression (concentration producing two times the amount of IKBKAP protein vs DMSO vehicle control)” value is reported as “***** (≤0.005 μM is indicated by five stars (*****))” and the “MFI (maximum fold increase in IKBKAP protein abundance relative to the vehicle control)” value is reported as “***** (>4.9 is indicated by five stars (*****))”.
Cc1c([C@@H](C)N)sc2c(NCc3cccs3)cc(Cl)nc12 [Compound 56, 2-[(1R)-1-aminoethyl]-5-chloro-3-methyl-N-[(thiophen-2-yl)methyl]thieno[3,2-b]pyridin-7-amine] was tested, and the “EC2x for IKBKAP protein expression (concentration producing two times the amount of IKBKAP protein vs DMSO vehicle control)” value was “* (An EC2x>1 μM is indicated by one star (*))” and the “MFI (maximum fold increase in IKBKAP protein abundance relative to the vehicle control)” value was “* (An MFI≤1.9 is indicated by one star (*))”.
For C[C@H](N)Cc1sc2c(NCc3ccco3)cc(Cl)nc2c1C#N [Compound 109, 2-[(2S)-2-aminopropyl]-5-chloro-7-{[(furan-2-yl)methyl]amino}thieno[3,2-b]pyridine-3-carbonitrile], the “EC2x for IKBKAP protein expression (concentration producing two times the amount of IKBKAP protein vs DMSO vehicle control)” value was “***** (≤0.005 μM is indicated by five stars (*****))” and the “MFI (maximum fold increase in IKBKAP protein abundance relative to the vehicle control)” value was “***** (>4.9 is indicated by five stars (*****))”.
CN[C@@H](C)c1sc2c(NCc3ccco3)cc(Cl)nc2c1C [Compound 26, 5-chloro-N-[(furan-2-yl)methyl]-3-methyl-2-[(1S)-1-(methylamino)ethyl]thieno[3,2-b]pyridin-7-amine] was tested, and the “EC2x for IKBKAP protein expression (concentration producing two times the amount of IKBKAP protein vs DMSO vehicle control)” value was “*** (between >0.02 μM and ≤0.5 μM is indicated by three stars (***))” and the “MFI (maximum fold increase in IKBKAP protein abundance relative to the vehicle control)” value was “**** (between >3.9 and ≤4.9 is indicated by four stars (****))”.
For Cc1c(C[C@H](C)N)sc2c(NCc3ccco3)ccnc12 [Compound 34, 2-[(2S)-2-aminopropyl]-N-[(furan-2-yl)methyl]-3-methylthieno[3,2-b]pyridin-7-amine], the “EC2x for IKBKAP protein expression (concentration producing two times the amount of IKBKAP protein vs DMSO vehicle control)” value was “**** (between >0.005 μM and ≤0.02 μM is indicated by four stars (****))” and the “MFI (maximum fold increase in IKBKAP protein abundance relative to the vehicle control)” value was “***** (>4.9 is indicated by five stars (*****))”.
N[C@H](Cc1sc2c(NCc3ccco3)cc(Cl)nc2c1Cl)C(=O)O [Compound 121, 3-(3,5-dichloro-7-{[(furan-2-yl)methyl]amino}thieno[3,2-b]pyridin-2-yl)-D-alanine] was tested, and the “EC2x for IKBKAP protein expression (concentration producing two times the amount of IKBKAP protein vs DMSO vehicle control)” value was “**** (between >0.005 μM and ≤0.02 μM is indicated by four stars (****))” and the “MFI (maximum fold increase in IKBKAP protein abundance relative to the vehicle control)” value was “**** (between >3.9 and ≤4.9 is indicated by four stars (****))”.
In the case of C[C@H](N)Cc1sc2c(NCc3cccs3)cc(C#N)nc2c1Br [Compound 101, 2-[(2S)-2-aminopropyl]-3-bromo-7-{[(thiophen-2-yl)methyl]amino}thieno[3,2-b]pyridine-5-carbonitrile], the “EC2x for IKBKAP protein expression (concentration producing two times the amount of IKBKAP protein vs DMSO vehicle control)” value is reported as “***** (≤0.005 μM is indicated by five stars (*****))” and the “MFI (maximum fold increase in IKBKAP protein abundance relative to the vehicle control)” value is reported as “***** (>4.9 is indicated by five stars (*****))”.
Cc1c(C[C@@H](N)[C@H](C)F)sc2c(NCc3cccs3)cc(Cl)nc12 [Compound 126, 2-[(2R,3S)-2-amino-3-fluorobutyl]-5-chloro-3-methyl-N-[(thiophen-2-yl)methyl]thieno[3,2-b]pyridin-7-amine] was tested, and the “EC2x for IKBKAP protein expression (concentration producing two times the amount of IKBKAP protein vs DMSO vehicle control)” value was “***** (≤0.005 μM is indicated by five stars (*****))” and the “MFI (maximum fold increase in IKBKAP protein abundance relative to the vehicle control)” value was “***** (>4.9 is indicated by five stars (*****))”.
With Clc1cc(NCc2ccco2)c2sccc2n1 [Compound 1, 5-chloro-N-[(furan-2-yl)methyl]thieno[3,2-b]pyridin-7-amine] the “EC2x for IKBKAP protein expression (concentration producing two times the amount of IKBKAP protein vs DMSO vehicle control)” value was “* (An EC2x>1 μM is indicated by one star (*))” and the “MFI (maximum fold increase in IKBKAP protein abundance relative to the vehicle control)” value was “*** (between >2.9 and ≤3.9 is indicated by three stars (***))”.
N[C@@H](CF)Cc1sc2c(NCc3ccco3)cc(Cl)nc2c1Br [Compound 46, 2-[(2R)-2-amino-3-fluoropropyl]-3-bromo-5-chloro-N-[(furan-2-yl)methyl]thieno[3,2-b]pyridin-7-amine] was tested, and the “EC2x for IKBKAP protein expression (concentration producing two times the amount of IKBKAP protein vs DMSO vehicle control)” value was “***** (≤0.005 μM is indicated by five stars (*****))” and the “MFI (maximum fold increase in IKBKAP protein abundance relative to the vehicle control)” value was “***** (>4.9 is indicated by five stars (*****))”.
C#C[C@H](N)Cc1sc2c(NCc3ccco3)cc(Cl)nc2c1C [Compound 123, 2-[(2R)-2-aminobut-3-yn-1-yl]-3-methyl-5-chloro-N-[(furan-2-yl)methyl]thieno[3,2-b]pyridin-7-amine] was tested, and the “EC2x for IKBKAP protein expression (concentration producing two times the amount of IKBKAP protein vs DMSO vehicle control)” value was “***** (≤0.005 μM is indicated by five stars (*****))” and the “MFI (maximum fold increase in IKBKAP protein abundance relative to the vehicle control)” value was “***** (>4.9 is indicated by five stars (*****))”.
